Measurements as given in patent publication US12187746B2, “C26-linked rapamycin analogs as mTOR inhibitors” (Revolution Medicines, Inc., priority 2018, dated 2025).

How the values were obtained:
P-Akt (S473) = experiment: Cell based AlphaLISA assay, inhibition of P-Akt (S473) in MDA-MB-468 cells; conditions: Homo sapiens, 4 h, 0.017-1,000 nM, two to four hours at 37° C., AlphaLisa SureFire Ultra, read-out: pIC50 for Inhibition of mTORC1 and mTORC2 Substrate Phosphorylation, p-AKT1/2/3-(S473) (converted)
How it was run: (§1)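 mTORC1 and mTORC2 activity in cells tracked through AlphaLISA SureFire Ultra detection of the phosphoproteins after incubation and cell lysis; Alpha signal read in duplicate. IC50 from normalized concentration–response regression with control-based normalization.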

P-4E-BP1 (T37/46) = experiment: Cell based AlphaLISA assay, inhibition of P-4E-BP1 (T37/46) in MDA-MB-468 cells; conditions: Homo sapiens, 4 h, 0.017-1,000 nM, two to four hours at 37° C., AlphaLisa SureFire Ultra, read-out: pIC50 for Inhibition of mTORC1 and mTORC2 Substrate Phosphorylation, p-4E-BP1-(T37/46) (converted)
How it was run: as §1

P-P70S6K (T389) = experiment: Cell based AlphaLISA assay, inhibition of P-P70S6K (T389) in MDA-MB-468 cells; conditions: Homo sapiens, 4 h, 0.017-1,000 nM, two to four hours at 37° C., AlphaLisa SureFire Ultra, read-out: pIC50 for Inhibition of mTORC1 and mTORC2 Substrate Phosphorylation, p-P70S6K-(T389) (converted)
How it was run: as §1

## CO[C@H]1C[C@@H]2CC[C@@H](C)[C@@](O)(O2)C(=O)C(=O)N2CCCC[C@H]2C(=O)O[C@H]([C@H](C)C[C@@H]2CC[C@@H](O)[C@H](OC)C2)C[C@@H](O)[C@H](C)/C=C(\C)[C@@H](O)[C@@H](OC)C(=NOCC(=O)NCc2cnc(N3CCN(C(=O)CN(C)CC(=O)NCCOCCOCCC(=O)N4CCc5cc(Cn6nc(-c7ccc8oc(N)nc8c7)c7c(N)ncnc76)ccc5C4)CC3)nc2)[C@H](C)C[C@H](C)/C=C/C=C/C=C/1C [Example 25]
P-Akt (S473)
  IC50: > 1000 nM
P-4E-BP1 (T37/46)
  IC50: 31.6 to 1000 nM
P-P70S6K (T389)
  IC50: 1 to 10 nM

## COc1ccc(-c2ccc3ncc4c(c3c2)n(-c2ccc(N3CCN(C(=O)CCOCCOCCOCCOCCOCCOCCNC(=O)CON=C5[C@H](C)C[C@H](C)/C=C/C=C/C=C(\C)[C@@H](OC)C[C@@H]6CC[C@@H](C)[C@@](O)(O6)C(=O)C(=O)N6CCCC[C@H]6C(=O)O[C@H]([C@H](C)C[C@@H]6CC[C@@H](O)[C@H](OC)C6)C[C@@H](O)[C@H](C)/C=C(\C)[C@@H](O)[C@H]5OC)CC3)c(C(F)(F)F)c2)c(=O)n4C)cn1 [Example 13]
P-Akt (S473)
  IC50: 3.16 to 31.6 nM
P-4E-BP1 (T37/46)
  IC50: < 3.16 nM
P-P70S6K (T389)
  IC50: < 1 nM

## CO[C@H]1C[C@@H]2CC[C@@H](C)[C@@](O)(O2)C(=O)C(=O)N2CCCC[C@H]2C(=O)O[C@H]([C@H](C)C[C@@H]2CC[C@@H](O)[C@H](OC)C2)C[C@@H](O)[C@H](C)/C=C(\C)[C@@H](O)[C@@H](OC)C(=NOCC(=O)NCc2cnc(N3CCN(C(=O)CCOCCN4CCC(N5CCC(C(=O)N6CCc7cc(Cn8nc(-c9ccc%10oc(N)nc%10c9)c9c(N)ncnc98)ccc7C6)CC5)CC4)CC3)nc2)[C@H](C)C[C@H](C)/C=C/C=C/C=C/1C [Example 63]
P-Akt (S473)
  IC50: > 1000 nM
P-4E-BP1 (T37/46)
  IC50: 3.16 to 31.6 nM
P-P70S6K (T389)
  IC50: < 1 nM

## COc1ccc(-c2ccc3ncc4c(c3c2)n(-c2ccc(N3CCN(c5ncc6c(n5)CCN(C(=O)c5cnc(N7CCN(CCOCCC(=O)N8CCN(c9ncc(CNC(=O)CON=C%10[C@H](C)C[C@H](C)/C=C/C=C/C=C(\C)[C@@H](OC)C[C@@H]%11CC[C@@H](C)[C@@](O)(O%11)C(=O)C(=O)N%11CCCC[C@H]%11C(=O)O[C@H]([C@H](C)C[C@@H]%11CC[C@@H](O)[C@H](OC)C%11)C[C@@H](O)[C@H](C)/C=C(\C)[C@@H](O)[C@H]%10OC)cn9)CC8)CC7)nc5)C6)CC3)c(C(F)(F)F)c2)c(=O)n4C)cn1 [Example 33]
P-Akt (S473)
  IC50: > 1000 nM
P-4E-BP1 (T37/46)
  IC50: > 1000 nM
P-P70S6K (T389)
  IC50: 10 to 1000 nM

## CO[C@H]1C[C@@H]2CC[C@@H](C)[C@@](O)(O2)C(=O)C(=O)N2CCCC[C@H]2C(=O)O[C@H]([C@H](C)C[C@@H]2CC[C@@H](O)[C@H](OC)C2)C[C@@H](O)[C@H](C)/C=C(\C)[C@@H](O)[C@@H](OC)C(=NOCC(=O)NCc2cnc(N3CCN(C(=O)CCOCCN4CCN(c5ncc(C(=O)NCCCCn6nc(-c7ccc8oc(N)nc8c7)c7c(N)ncnc76)cn5)CC4)CC3)nc2)[C@H](C)C[C@H](C)/C=C/C=C/C=C/1C [Example 29]
P-Akt (S473)
  IC50: 31.6 to 1000 nM
P-4E-BP1 (T37/46)
  IC50: 3.16 to 31.6 nM
P-P70S6K (T389)
  IC50: 1 to 10 nM

## CO[C@H]1C[C@@H]2CC[C@@H](C)[C@@](O)(O2)C(=O)C(=O)N2CCCC[C@H]2C(=O)O[C@H]([C@H](C)C[C@@H]2CC[C@@H](O)[C@H](OC)C2)C[C@@H](O)[C@H](C)/C=C(\C)[C@@H](O)[C@@H](OC)C(=NOCC(=O)NCCOCCOCCOCCOCCOCCOCCOCCOCCC(=O)N2CCc3cc(Cn4nc(-c5cnc6[nH]ccc6c5)c5c(N)ncnc54)ccc3C2)[C@H](C)C[C@H](C)/C=C/C=C/C=C/1C [Example 9]
P-Akt (S473)
  IC50: > 1000 nM
P-4E-BP1 (T37/46)
  IC50: 3.16 to 31.6 nM
P-P70S6K (T389)
  IC50: 1 to 10 nM

## CO[C@H]1C[C@@H]2CC[C@@H](C)[C@@](O)(O2)C(=O)C(=O)N2CCCC[C@H]2C(=O)O[C@H]([C@H](C)C[C@@H]2CC[C@@H](O)[C@H](OC)C2)C[C@@H](O)[C@H](C)/C=C(\C)[C@@H](O)[C@@H](OC)C(=NOCC(=O)NCCOCCOCCOCCOCCOCCOCCOCCOCCC(=O)NCCS(=O)(=O)c2ccc(C(=O)N3CCOc4ccc(-c5ccc(N)nc5)cc4C3)c(C)c2)[C@H](C)C[C@H](C)/C=C/C=C/C=C/1C [Example 45]
P-Akt (S473)
  IC50: > 1000 nM
P-4E-BP1 (T37/46)
  IC50: 3.16 to 31.6 nM
P-P70S6K (T389)
  IC50: 1 to 10 nM

## CO[C@H]1C[C@@H]2CC[C@@H](C)[C@@](O)(O2)C(=O)C(=O)N2CCCC[C@H]2C(=O)O[C@H]([C@H](C)C[C@@H]2CC[C@@H](O)[C@H](OC)C2)C[C@@H](O)[C@H](C)/C=C(\C)[C@@H](O)[C@@H](OC)C(=NOCC(=O)NCCOCCOCCOCCOCCOCCOCCOCCOCCC(=O)NCCS(=O)(=O)c2ccc(C(=O)N3CCOc4ccc(-c5ccc(N)nc5)cc4C3)c(C)c2F)[C@H](C)C[C@H](C)/C=C/C=C/C=C/1C [Example 46]
P-Akt (S473)
  IC50: > 1000 nM
P-4E-BP1 (T37/46)
  IC50: 3.16 to 31.6 nM
P-P70S6K (T389)
  IC50: 1 to 10 nM

## CO[C@H]1C[C@@H]2CC[C@@H](C)[C@@](O)(O2)C(=O)C(=O)N2CCCC[C@H]2C(=O)O[C@H]([C@H](C)C[C@@H]2CC[C@@H](O)[C@H](OC)C2)C[C@@H](O)[C@H](C)/C=C(\C)[C@@H](O)[C@@H](OC)C(=NOCC(=O)NCc2cnc(N3CCN(c4ncc(C(=O)NCCOCCC(=O)N5CCc6cc(Cn7nc(-c8ccc9oc(N)nc9c8)c8c(N)ncnc87)ccc6C5)c(N)n4)CC3)nc2)[C@H](C)C[C@H](C)/C=C/C=C/C=C/1C [Example 50]
P-Akt (S473)
  IC50: > 1000 nM
P-4E-BP1 (T37/46)
  IC50: > 1000 nM
P-P70S6K (T389)
  IC50: 10 to 1000 nM

## CO[C@H]1C[C@@H]2CC[C@@H](C)[C@@](O)(O2)C(=O)C(=O)N2CCCC[C@H]2C(=O)O[C@H]([C@H](C)C[C@@H]2CC[C@@H](O)[C@H](OC)C2)C[C@@H](O)[C@H](C)/C=C(\C)[C@@H](O)[C@@H](OC)C(=NOCC(=O)NCc2cnc(N3CCN(C(=O)CCOCCN4CCN(c5ncc(C(=O)N6CCc7cc(Cn8nc(-c9ccc%10oc(N)nc%10c9)c9c(N)ncnc98)ccc7C6)cn5)CC4)CC3)nc2)[C@H](C)C[C@H](C)/C=C/C=C/C=C/1C [Example 30]
P-Akt (S473)
  IC50: > 1000 nM
P-4E-BP1 (T37/46)
  IC50: 3.16 to 31.6 nM
P-P70S6K (T389)
  IC50: < 1 nM

## CO[C@H]1C[C@@H]2CC[C@@H](C)[C@@](O)(O2)C(=O)C(=O)N2CCCC[C@H]2C(=O)O[C@H]([C@H](C)C[C@@H]2CC[C@@H](O)[C@H](OC)C2)C[C@@H](O)[C@H](C)/C=C(\C)[C@@H](O)[C@@H](OC)C(=NOCC(=O)N2CCc3nc(N4CCN(c5ncc(C(=O)NCCOCCC(=O)NCCCCn6nc(-c7ccc8oc(N)nc8c7)c7c(N)ncnc76)cn5)CC4)ncc3C2)[C@H](C)C[C@H](C)/C=C/C=C/C=C/1C [Example 17]
P-Akt (S473)
  IC50: > 1000 nM
P-4E-BP1 (T37/46)
  IC50: 3.16 to 31.6 nM
P-P70S6K (T389)
  IC50: 1 to 10 nM

## CO[C@H]1C[C@@H]2CC[C@@H](C)[C@@](O)(O2)C(=O)C(=O)N2CCCC[C@H]2C(=O)O[C@H]([C@H](C)C[C@@H]2CC[C@@H](O)[C@H](OC)C2)C[C@@H](O)[C@H](C)/C=C(\C)[C@@H](O)[C@@H](OC)C(=NOCC(=O)N2CCc3nc(N4CCN(C(=O)CCOCCN5CCN(c6ncc(C(=O)N7CCc8cc(Cn9nc(-c%10ccc%11oc(N)nc%11c%10)c%10c(N)ncnc%109)ccc8C7)cn6)CC5)CC4)ncc3C2)[C@H](C)C[C@H](C)/C=C/C=C/C=C/1C [Example 57]
P-Akt (S473)
  IC50: > 1000 nM
P-4E-BP1 (T37/46)
  IC50: 3.16 to 31.6 nM
P-P70S6K (T389)
  IC50: < 1 nM
